From patent US11420973B2, “Amide substituted indole compounds useful as TLR inhibitors” (BRISTOL-MYERS SQUIBB COMPANY, priority 2017, dated 2022)

What was measured:
human TLR7 = human TLR7 (Homo sapiens (Human), UniProt Q9NYK1); test: TLR7 inhibition reporter assay (HEK-Blue SEAP reporter, gardiquimod stimulation); format: cell-based; details: HEK-Blue cells overexpressing human TLR7, gardiquimod 7.5 μM
Procedure: (§1) HEK-Blue™-cells (Invivogen) overexpressing human TLR7, TLR8 or TLR9 receptors were used for screening inhibitors of these receptors using an inducible SEAP (secreted embryonic alkaline phosphatase) reporter gene under the control of the IFN-β minimal promoter fused to five NF-κB and AP-1-binding sites. Briefly, cells are seeded into Greiner 384 well plates (15000 cells per well for TLR7, 20,000 for TLR8 and 25,000 for TLR9) and then treated with test compounds in DMSO to yield a final dose response concentration range of 0.05 nM-50 μM. After a 30 minute compound pre-treatment at room temperature, the cells are then stimulated with a TLR7 ligand (gardiquimod at a final concentration of 7.5 μM), TLR8 ligand (R848 at a final concentration of 15.9 μM) or TLR9 ligand (ODN2006 at a final concentration of 5 nM) to activate NF-κB and AP-1 which induce the production of SEAP. After a 22 hour incubation at 37° C., 5% CO2, SEAP levels are determined with the addition of HEK-Blue™ Detection reagent (Invivogen), a cell culture medium that allows for detection of SEAP, according to manufacturer's specifications.

human TLR8 = human TLR8 (Homo sapiens (Human), UniProt Q9NR97); test: TLR8 inhibition reporter assay (HEK-Blue SEAP reporter, R848 stimulation); details: read-out: TLR8 IC50; HEK-Blue cells overexpressing human TLR8, R848 15.9 μM, SEAP reporter;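 note: SEAP driven by IFN-β minimal promoter with NF-κB and AP-1 sites, 22 h incubation, compounds 0.05 nM–50 µM, inhibition scaled between agonist plus DMSO and reference inhibitor wells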
Sequence of human TLR8 (Q9NR97 27-1041): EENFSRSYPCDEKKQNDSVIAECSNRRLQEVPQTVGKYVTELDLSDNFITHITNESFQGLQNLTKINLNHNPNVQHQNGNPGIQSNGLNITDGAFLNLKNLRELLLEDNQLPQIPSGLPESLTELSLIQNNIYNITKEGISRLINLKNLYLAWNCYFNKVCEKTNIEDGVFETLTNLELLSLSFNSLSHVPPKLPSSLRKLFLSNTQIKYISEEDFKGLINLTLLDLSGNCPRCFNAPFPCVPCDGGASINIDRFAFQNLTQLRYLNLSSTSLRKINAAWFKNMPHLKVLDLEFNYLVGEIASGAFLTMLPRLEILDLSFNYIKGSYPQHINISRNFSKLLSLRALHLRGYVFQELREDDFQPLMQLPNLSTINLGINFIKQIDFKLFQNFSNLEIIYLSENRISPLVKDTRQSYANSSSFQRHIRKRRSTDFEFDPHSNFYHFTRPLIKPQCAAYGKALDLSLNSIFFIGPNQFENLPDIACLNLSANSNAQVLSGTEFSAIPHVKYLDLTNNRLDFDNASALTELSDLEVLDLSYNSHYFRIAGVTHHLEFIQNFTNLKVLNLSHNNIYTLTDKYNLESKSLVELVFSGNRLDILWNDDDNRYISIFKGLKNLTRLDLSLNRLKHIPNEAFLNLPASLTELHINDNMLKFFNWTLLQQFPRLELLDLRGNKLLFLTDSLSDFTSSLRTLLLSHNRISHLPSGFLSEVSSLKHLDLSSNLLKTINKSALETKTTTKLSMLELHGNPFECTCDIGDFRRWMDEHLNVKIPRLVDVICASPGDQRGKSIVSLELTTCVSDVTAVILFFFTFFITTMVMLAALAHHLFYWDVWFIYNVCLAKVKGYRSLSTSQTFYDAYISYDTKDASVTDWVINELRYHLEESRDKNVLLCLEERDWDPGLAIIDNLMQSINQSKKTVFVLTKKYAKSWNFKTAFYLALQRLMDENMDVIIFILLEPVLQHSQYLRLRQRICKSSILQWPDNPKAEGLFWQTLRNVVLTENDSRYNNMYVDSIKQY
Procedure: as §1

human TLR9 = human TLR9 (Homo sapiens (Human), UniProt Q9NR96); test: TLR9 inhibition reporter assay (HEK-Blue SEAP reporter, ODN2006 stimulation); details: read-out: TLR9 IC50; HEK-Blue cells overexpressing human TLR9, ODN2006 5 nM, SEAP reporter;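 note: SEAP reporter under IFN-β minimal promoter with five NF-κB and AP-1 sites, 22 h incubation, compounds 0.05 nM–50 µM, inhibition relative to agonist plus DMSO versus known inhibitor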
Sequence of human TLR9 (Q9NR96 26-1032): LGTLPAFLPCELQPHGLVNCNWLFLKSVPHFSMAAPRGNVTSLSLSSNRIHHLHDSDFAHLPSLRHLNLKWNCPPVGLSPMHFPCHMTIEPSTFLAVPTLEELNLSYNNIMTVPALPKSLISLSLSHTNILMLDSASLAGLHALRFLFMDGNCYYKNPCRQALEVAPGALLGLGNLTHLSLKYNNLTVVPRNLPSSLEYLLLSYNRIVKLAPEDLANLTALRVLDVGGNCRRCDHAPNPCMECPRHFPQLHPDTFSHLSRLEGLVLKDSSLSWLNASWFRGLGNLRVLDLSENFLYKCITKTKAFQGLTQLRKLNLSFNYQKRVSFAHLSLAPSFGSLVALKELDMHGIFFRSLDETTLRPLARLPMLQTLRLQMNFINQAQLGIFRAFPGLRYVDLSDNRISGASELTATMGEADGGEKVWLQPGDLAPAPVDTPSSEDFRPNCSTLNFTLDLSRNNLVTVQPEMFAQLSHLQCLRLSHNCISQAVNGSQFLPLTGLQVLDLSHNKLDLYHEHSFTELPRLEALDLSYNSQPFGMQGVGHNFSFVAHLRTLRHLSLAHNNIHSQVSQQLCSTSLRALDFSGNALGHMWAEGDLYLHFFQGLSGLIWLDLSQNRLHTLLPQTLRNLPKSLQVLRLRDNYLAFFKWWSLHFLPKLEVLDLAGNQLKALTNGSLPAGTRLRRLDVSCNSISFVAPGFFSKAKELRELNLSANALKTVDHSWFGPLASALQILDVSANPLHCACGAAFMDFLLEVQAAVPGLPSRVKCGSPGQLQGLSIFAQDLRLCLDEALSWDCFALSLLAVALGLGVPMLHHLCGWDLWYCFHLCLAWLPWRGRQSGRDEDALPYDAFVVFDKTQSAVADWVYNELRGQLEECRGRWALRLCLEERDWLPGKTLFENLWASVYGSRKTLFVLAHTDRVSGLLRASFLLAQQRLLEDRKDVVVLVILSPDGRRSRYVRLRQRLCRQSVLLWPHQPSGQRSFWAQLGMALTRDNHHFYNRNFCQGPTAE

Sequence of human TLR7 (Q9NYK1 27-1049): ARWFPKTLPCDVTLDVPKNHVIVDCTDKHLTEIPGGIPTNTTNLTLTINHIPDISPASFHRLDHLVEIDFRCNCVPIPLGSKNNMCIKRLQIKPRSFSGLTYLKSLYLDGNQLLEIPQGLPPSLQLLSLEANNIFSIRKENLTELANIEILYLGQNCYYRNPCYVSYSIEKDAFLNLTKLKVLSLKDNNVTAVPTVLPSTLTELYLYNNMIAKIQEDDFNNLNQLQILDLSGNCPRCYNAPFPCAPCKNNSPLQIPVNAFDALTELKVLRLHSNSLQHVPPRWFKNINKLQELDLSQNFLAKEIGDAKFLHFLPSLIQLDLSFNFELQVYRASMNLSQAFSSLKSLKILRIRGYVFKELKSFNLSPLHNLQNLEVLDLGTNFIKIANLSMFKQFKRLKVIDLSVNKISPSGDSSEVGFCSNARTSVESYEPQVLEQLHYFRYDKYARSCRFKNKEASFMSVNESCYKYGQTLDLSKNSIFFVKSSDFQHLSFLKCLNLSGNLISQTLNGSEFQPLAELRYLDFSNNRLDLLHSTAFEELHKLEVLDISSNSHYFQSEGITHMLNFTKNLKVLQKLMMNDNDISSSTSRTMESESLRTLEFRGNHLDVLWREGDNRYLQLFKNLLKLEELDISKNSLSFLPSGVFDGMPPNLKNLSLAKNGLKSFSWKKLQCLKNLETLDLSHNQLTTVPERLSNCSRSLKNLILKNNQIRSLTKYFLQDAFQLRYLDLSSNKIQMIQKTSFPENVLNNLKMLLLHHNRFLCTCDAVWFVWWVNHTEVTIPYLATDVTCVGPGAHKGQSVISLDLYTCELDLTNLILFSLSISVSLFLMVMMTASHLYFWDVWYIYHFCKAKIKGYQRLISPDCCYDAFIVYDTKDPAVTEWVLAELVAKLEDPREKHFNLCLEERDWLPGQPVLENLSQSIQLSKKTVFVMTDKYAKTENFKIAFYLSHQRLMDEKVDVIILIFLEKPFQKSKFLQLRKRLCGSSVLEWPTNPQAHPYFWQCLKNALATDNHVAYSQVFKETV

| Compound | IC50 (human TLR7) [nM] | IC50 (human TLR8) [nM] | IC50 (human TLR9) [nM] |
| --- | --- | --- | --- |
| CNCC(=O)N1CC2CN(C(=O)c3ccc4[nH]c(-c5ccc(OC)c(OC)c5)c(C(C)C)c4c3)CC2C1 (stereo not drawn) [Example 16, 1-(5-(2-(3,4-dimethoxyphenyl)-3-isopropyl-1H-indole-5-carbonyl)hexahydropyrrolo[3,4-c]pyrrol-2(1H)-yl)-2-(methylamino)ethanone] | 280 | 194 | 3940 |
| CCc1c(-c2ccc(OC)c(OC)c2)[nH]c2ccc(C(=O)NCCN(C)C)cc12 [Example 17, 2-(3,4-dimethoxyphenyl)-N-[2-(dimethylamino)ethyl]-3-ethyl-1H-indole-5-carboxamide] | 115 | 7.9 | 2510 |
| CCc1c(-c2ccc(OC)c(OC)c2)[nH]c2ccc(C(=O)NC[C@@H](F)C(C)(C)O)cc12 [Example 18, (R)-2-(3,4-dimethoxyphenyl)-3-ethyl-N-(2-fluoro-3-hydroxy-3-methylbutyl)-1H-indole-5-carboxamide] | 1660 | 260 | 13800 |
| CCc1c(-c2ccc(OC)c(OC)c2)[nH]c2ccc(C(=O)NC3CCCCCC3)cc12 [Example 20, N-cycloheptyl-2-(3,4-dimethoxyphenyl)-3-ethyl-1H-indole-5-carboxamide] | 2310 | 858 | > 50000 |
| CCc1c(-c2ccc(OC)c(OC)c2)[nH]c2ccc(C(=O)Nc3cnn(C4COC4)c3)cc12 [Example 21, 2-(3,4-dimethoxyphenyl)-3-ethyl-N-(1-(oxetan-3-yl)-1H-pyrazol-4-yl)-1H-indole-5-carboxamide] | 764 | 132 | 37400 |
| CCc1c(-c2ccc(OC)c(OC)c2)[nH]c2ccc(C(=O)N(C)Cc3cccnc3)cc12 [Example 22, 2-(3,4-dimethoxyphenyl)-3-ethyl-N-methyl-N-(pyridin-3-ylmethyl)-1H-indole-5-carboxamide] | 356 | 264 | 37600 |
| CCc1c(-c2ccc(OC)c(OC)c2)[nH]c2ccc(C(=O)N(C)Cc3csc(C4CCNCC4)n3)cc12 [Example 23, 2-(3,4-dimethoxyphenyl)-3-ethyl-N-methyl-N-((2-(piperidin-4-yl)thiazol-4-yl)methyl)-1H-indole-5-carboxamide] | 362 | 43 | 885 |
| CCc1c(-c2ccc(OC)c(OC)c2)[nH]c2ccc(C(=O)N(C)CCc3ccccn3)cc12 [Example 24, 2-(3,4-dimethoxyphenyl)-3-ethyl-N-methyl-N-(2-(pyridin-2-yl)ethyl)-1H-indole-5-carboxamide] | 1790 | 581 | 31400 |
| CCc1c(-c2ccc(OC)c(OC)c2)[nH]c2ccc(C(=O)N3CCC(N4CCN(C)CC4)CC3)cc12 [Example 25, (2-(3,4-dimethoxyphenyl)-3-ethyl-1H-indol-5-yl)(4-(4-methylpiperazin-1-yl)piperidin-1-yl)methanone] | 186 | 14 | 3710 |
| CCc1c(-c2ccc(OC)c(OC)c2)[nH]c2ccc(C(=O)N3CCC[C@H]3COC)cc12 [Example 27, (S)-(2-(3,4-dimethoxyphenyl)-3-ethyl-1H-indol-5-yl)(2-(methoxymethyl)pyrrolidin-1-yl)methanone] | 1740 | 782 | > 50000 |
| CCc1c(-c2ccc(OC)c(OC)c2)[nH]c2ccc(C(=O)N3CCC[C@H]3CO)cc12 [Example 28, (S)-(2-(3,4-dimethoxyphenyl)-3-ethyl-1H-indol-5-yl)(2-(hydroxymethyl)pyrrolidin-1-yl)methanone] | 1350 | 220 | > 50000 |
| CCc1c(-c2ccc(OC)c(OC)c2)[nH]c2ccc(C(=O)N3CC[C@@H](N(C)C)C3)cc12 [Example 29, (R)-(2-(3,4-dimethoxyphenyl)-3-ethyl-1H-indol-5-yl)(3-(dimethylamino)pyrrolidin-1-yl)methanone] | 188 | 34 | 6180 |
